Measured values published in ChEMBL document CHEMBL5625220, “Discovery of anti-neuroinflammatory agents from 1,4,5,6-tetrahydrobenzo[2,3]oxepino[4,5-d]pyrimidin-2-amine derivatives by regulating microglia polarization” (Eur J Med Chem, 2023).

Columns and labels:
[1] = Cytotoxicity against mouse BV-2 cells assessed as survival rate at 5 uM incubated for 24 hrs by CCK8 assay relative to control; format: toxicity, cell-based; settings: read-out: Survival
BV-2 [2] = assay: Anti-inflammatory activity in mouse BV-2 cells assessed as inhibition of LPS-induced TNF-alpha production at 5 uM preincubated with LPS for 2 hrs followed by compound addition and measured after 24 hrs by ELISA relative to control; format: functional
BV-2 [3] = assay: Anti-inflammatory activity in mouse BV-2 cells assessed as inhibition of LPS-induced TNF-alpha production at 2.5 ug/ml preincubated with LPS for 2 hrs followed by compound addition and measured after 24 hrs by ELISA relative to control; format: functional

SMILES	viability at 24 h, 5 µM [1]	inhibition at 5 µM (BV-2 [2])	inhibition at 2.5 µg/mL (BV-2 [3])
COc1cc(OC)c2c(c1)OCC/C(=C\c1cccc(F)c1C(F)(F)F)C2=O	120%	68.3%	
S=C(S)N1CCCC1 [PYRROLIDINE DITHIOCARBAMATE]			58.4%
COc1cc(OC)c2c(c1)OCC/C(=C\c1ccccc1F)C2=O	146%	62.1%	
COc1cc(OC)c2c(c1)OCC/C(=C\c1c(F)cccc1C(F)(F)F)C2=O	116%	36.8%	
COc1cc(OC)c2c(c1)OCCC1=C2NC(N)=NC1c1c(F)cccc1F (centres undefined)	126%	67.4%	
COc1cc(OC)c2c(c1)OCC/C(=C\c1ccc(F)cc1)C2=O	148%	46.3%	
COc1cc(OC)c2c(c1)OCCC1=C2NC(N)=NC1c1cc(F)cc(F)c1 (centres undefined)	128%	76.8%	
COc1cc(OC)c2c(c1)OCC/C(=C\c1cccc(F)c1)C2=O	146%	69.3%	
COc1cc(OC)c2c(c1)OCC/C(=C\c1cc(F)cc(F)c1)C2=O	150%	73.6%	
COc1cc(OC)c2c(c1)OCCC1=C2NC(N)=NC1c1ccccc1F (centres undefined)	143%	73.4%	
COc1cc(OC)c2c(c1)OCC/C(=C\c1ccccc1C(F)(F)F)C2=O	142%	74.3%	
COc1cc(OC)c2c(c1)OCCC1=C2NC(N)=NC1c1cccc(C(F)(F)F)c1 (centres undefined)	109%	82.6%	
COc1cc(OC)c2c(c1)OCCC1=C2NC(N)=NC1c1cccc(F)c1C(F)(F)F (centres undefined)	95.4%	72.3%	
COc1cc(OC)c2c(c1)OCC/C(=C\c1cccc(C(F)(F)F)c1F)C2=O	117%	88.7%	
COc1cc(OC)c2c(c1)OCC/C(=C\c1cc(C(F)(F)F)cc(C(F)(F)F)c1)C2=O	95%	88.6%	
